Literature values as cited in patent US11103497B2, “Treatment of imatinib resistant leukemia” (Wyeth LLC, priority 2007, dated 2021).

System: BcrAbl T315I
Settings: patients with amino acid mutation T315I in BcrAbl; cited from earlier work

## Cc1cn(-c2cc(NC(=O)c3ccc(C)c(Nc4nccc(-c5cccnc5)n4)c3)cc(C(F)(F)F)c2)cn1 [nilotinob]
  effectiveness against CML: not effective
